For one test, the target named is T1, TRPV1 channel (Rattus norvegicus, UniProt O35433).
T1 construct: expressed in transfected cells; host or cells: Xenopus laevis oocytes injected with in vitro transcribed TRPV1 cRNA
Put plainly: Two-electrode voltage clamp (TEVC) in Xenopus oocytes expressing TRPV1 channels. It is filed as cell-based. As to conditions: for maximal effect (Ix/Icapsaicin): Imax relative to current in saturating capsaicin. (In general: Two-electrode voltage clamp holds a large cell at a set potential and records current.)

Test [1] relates to tactile allodynia induced by intra-plantar carrageenan. In words: Carrageenan model of inflammatory pain, tactile allodynia measured with von Frey filaments after topical application. It is filed as in vivo, Sprague–Dawley rats. To be noted: for Effect duration / Time of maximal analgesia / Time to first effect (first significant analgesic effect): after topical application; for Concentration at maximal analgesia / ED50 of maximal effect / Maximal percentage of analgesia attained: topical in cream; for ED50 of maximal effect: extrapolated from linear fit of %MPE at time of maximal analgesia; for Maximal percentage of analgesia attained: relative to cream (0%) and saline (100%) controls. Here is the method:
Male Sprague–Dawley rats (approximately 200–300 g body weight) were used. Food and water were supplied ad libitum and the animals were kept in a 12 h light–dark cycle in their home cages throughout the study. All procedures were in accordance with the U.S. National Institutes of Health guidelines and were approved by the bioethical Committee of the Universidad Andres Bello, Acta 11/2016.
2% λ-Carrageenan (Santa Cruz Biotechnology) was administered subcutaneously to induce tactile allodynia according to previous studies ([Yoshimura and Yonehara, 2001]; [Fehrenbacher et al., 2012]). Capsaicin was obtained from Sigma. Compounds 1, 2, and 3 were obtained from the National Cancer Institute. […] Novo base moisturizing cream (Charles Lasserre) was used as vehicle for all tested compounds including capsaicin and was used alone as vehicle control. The different concentrations used can be found in Table 3.
Rats were randomly assigned into the following groups for all compounds: EC50, 10-fold EC50, 100-fold EC50, 1,000-fold EC50, a control group treated with cream only and a control group for 2% λ-Carrageenan in which saline was injected instead of λ-Carrageenan.
The λ-Carrageenan model for inflammatory pain was used to induce mechanical allodynia lasting for less than 24 h, as reported elsewhere ([Yoshimura and Yonehara, 2001]; [Fehrenbacher et al., 2012]). In short, animals were injected with 100 µl of 2% λ-Carrageenan diluted in saline, or saline alone as vehicle control, into the left hind paw. One hour later, capsaicin or one of the three compounds dissolved in cream was administered on the plantar surface until fully absorbed using a cotton swab. Then the rat was placed in the test chamber and acclimated for 5 min.
The day before the experiments, tactile thresholds were measured in all animals to attain a baseline and to ensure normal sensitivity to tactile stimuli. On the day of the experiment, the cream that contained the compounds was applied only once, 5 min before the evaluation began, and the effects of each compound was measured over time, once per hour, for eight consecutive hours. Von Frey filaments were used to measure plantar mechanical sensitivity and inflammatory allodynia. Briefly, the rats were placed into the arena with a mesh floor and after the 5-min habituation, were tested using von Frey filaments. The following von Frey filaments were applied against the plantar surface: 52.2 g (512 mN), 26.1 g (256 mN), 13.0 g (128 mN), 6.52 g (64 mN), 3.26 g (32 mN). To measure tactile response, the up-down method was used ([Dixon, 1980]), with slight modifications: the starting filament (13.0 g) was applied perpendicularly to the plantar surface of the hind paw until it buckled for 3 s or until the rat withdrew its foot. If the rat responded to the filament, the procedure was repeated with the smaller filament (6.52 g) and then repeated sequentially until the smallest filament that elicits a response was identified. […] To confirm that the identified filament was the smallest that could elicit a response, the filament was changed to the next smaller filament with no response and then increased again to the filament that produced a response. The responses (X) and lack of responses (0) were recorded to obtain the tabular values from [Dixon (1980)], corresponding to:
Data from von Frey filaments was obtained as a dose–response curve for each compound over the course of 8 h. All groups were tested for normality and a two-way ANOVA with Bonferroni post hoc test was used to analyze differences. Differences were considered significant when p < 0.05 and averages are shown ± standard error of the mean (SE).
The paw withdrawal threshold (PWT) for each time point was calculated by using the following equation proposed by [Dixon, 1980]: […]

[2] abbreviates: higher concentrations than 10xEC50.

The values below come from PMC7372189 (Frontiers in Pharmacology, 2020).

What is called EC50 is the midpoint of the concentration-response curve.

Where two headings read alike, the source gives them in different places.

T1 sequence (O35433 whole entry): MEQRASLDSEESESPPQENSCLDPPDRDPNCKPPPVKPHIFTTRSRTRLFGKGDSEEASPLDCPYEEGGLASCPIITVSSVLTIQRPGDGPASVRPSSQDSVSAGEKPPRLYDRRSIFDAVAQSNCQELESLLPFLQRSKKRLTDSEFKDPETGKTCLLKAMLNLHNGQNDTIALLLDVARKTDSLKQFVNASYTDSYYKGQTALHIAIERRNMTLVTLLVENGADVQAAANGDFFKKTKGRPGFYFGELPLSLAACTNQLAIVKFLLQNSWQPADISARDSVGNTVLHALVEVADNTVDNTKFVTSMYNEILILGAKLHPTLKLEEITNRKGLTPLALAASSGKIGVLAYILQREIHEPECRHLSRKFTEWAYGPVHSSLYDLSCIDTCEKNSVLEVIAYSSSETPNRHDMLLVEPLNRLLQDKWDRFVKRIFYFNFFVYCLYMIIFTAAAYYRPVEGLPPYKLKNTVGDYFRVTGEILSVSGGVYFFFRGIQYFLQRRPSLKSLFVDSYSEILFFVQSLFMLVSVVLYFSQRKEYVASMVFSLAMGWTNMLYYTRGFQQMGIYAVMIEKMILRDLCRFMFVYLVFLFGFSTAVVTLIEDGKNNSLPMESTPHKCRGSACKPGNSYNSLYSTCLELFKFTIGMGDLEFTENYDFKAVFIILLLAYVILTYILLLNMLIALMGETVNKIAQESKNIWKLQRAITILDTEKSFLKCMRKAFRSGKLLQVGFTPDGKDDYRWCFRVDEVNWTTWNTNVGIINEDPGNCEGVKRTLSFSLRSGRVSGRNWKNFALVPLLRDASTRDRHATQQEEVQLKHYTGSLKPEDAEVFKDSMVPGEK

Regarding `C=C(C)[C@]12C[C@@H](C)[C@@]34O[C@](Cc5ccccc5)(O[C@@H]1[C@@H]3C=C(COC(=O)Cc1ccc(O)c(OC)c1)C[C@]1(O)C(=O)C(C)=C[C@@H]41)O2` [Resiniferatoxin, reference compound], a half-maximal effect at TRPV1 channel (EC50) was put at 0.7 nM.
For the molecule `COc1cc(C2C(C(=O)OC3CCCC3)=C(C)NC3=C2C(=O)CC(c2ccc(OC)c(OC)c2)C3)ccc1O` (stereo not drawn) [Compound 1], the “maximal effect (Ix/Icapsaicin)” value at TRPV1 channel is recorded as 0.8. Moreover, the EC50 at TRPV1 channel (read-out: EC50) came out at 53 ± 6 nM. Moreover, the “Duration of significant analgesic effect” value in test [1] (10xEC50) is 8 h; in test [1] (setting [2]) it was at least 9 h. Further, the “Time of first significant analgesic effect compared to vehicle” value in test [1] (10xEC50) and in test [1] (setting [2]) was 1 h in each case. The “Analgesic effect relative to vehicle, significance of tactile thresholds (von Frey)” value in test [1] (Time 1 h, x10 EC50) is listed as “* (*p < 0.05)”; in test [1] (Time 1 h, x100 EC50) it was “* (*p < 0.05)”; in test [1] (Time 1 h, x1000 EC50), “** (**p < 0.01)”; in test [1] (Time 2 h, x10 EC50) it was “**** (****p < 0.0001)”; in test [1] (Time 2 h, x100 EC50) it was “** (**p < 0.01)”; in test [1] (Time 2 h, x1000 EC50), “*** (***p < 0.001)”. The “Analgesic effect relative to vehicle, significance of tactile thresholds (von Frey)” value in test [1] (Time 3 h, x10 EC50) is listed as “**** (****p < 0.0001)”; in test [1] (Time 3 h, x100 EC50), “** (**p < 0.01)”; in test [1] (Time 3 h, x1000 EC50) it was “**** (****p < 0.0001)”; in test [1] (Time 4 h, x10 EC50), “*** (***p < 0.001)”; in test [1] (Time 4 h, x100 EC50), “* (*p < 0.05)”; in test [1] (Time 4 h, x1000 EC50), “*** (***p < 0.001)”. Also, the “Analgesic effect relative to vehicle, significance of tactile thresholds (von Frey)” value was “**** (****p < 0.0001)” in test [1] (Time 5 h, x10 EC50); “** (**p < 0.01)” in test [1] (Time 5 h, x100 EC50); “*** (***p < 0.001)” in test [1] (Time 5 h, x1000 EC50); “** (**p < 0.01)” in test [1] (Time 6 h, x10 EC50); “** (**p < 0.01)” in test [1] (Time 6 h, x100 EC50); “*** (***p < 0.001)” in test [1] (Time 6 h, x1000 EC50). Also, the “Analgesic effect relative to vehicle, significance of tactile thresholds (von Frey)” value was “** (**p < 0.01)” in test [1] (Time 7 h, x10 EC50); “*** (***p < 0.001)” in test [1] (Time 7 h, x100 EC50); “*** (***p < 0.001)” in test [1] (Time 7 h, x1000 EC50); “* (*p < 0.05)” in test [1] (Time 8 h, x10 EC50); “** (**p < 0.01)” in test [1] (Time 8 h, x100 EC50); “*** (***p < 0.001)” in test [1] (Time 8 h, x1000 EC50). The “Analgesic effect relative to vehicle, significance of tactile thresholds (von Frey)” value in test [1] (Time 9 h, x100 EC50) is listed as “** (**p < 0.01)”; in test [1] (Time 9 h, x1000 EC50) it was “** (**p < 0.01)”. This molecule also showed an Effect duration in test [1] of 8 h. The “Time of maximal analgesia” value in test [1] is reported as 3 h. Further, the “Concentration at maximal analgesia” value in test [1] was 53 µM. In addition, in test [1], the “ED50 of maximal effect” value was 37700 nM. Further, the “Maximal percentage of analgesia attained” value in test [1] is 83%.
`Cc1cccc(NC(=O)C2CCCN(C(=O)OCc3ccccc3)C2)c1` (stereo not drawn) [Compound 2]: the “maximal effect (Ix/Icapsaicin)” value at TRPV1 channel is listed as 0.73. On TRPV1 channel (read-out: EC50), the concentration giving a half-maximal response (EC50) came to 53 ± 4.3 nM. Moreover, the “Time of first significant analgesic effect compared to vehicle” value in test [1] (100xEC50) stood at 2 h. The “Analgesic effect relative to vehicle, significance of tactile thresholds (von Frey)” value in test [1] (Time 1 h, x1000 EC50) is reported as “*** (***p < 0.001)”; in test [1] (Time 2 h, x100 EC50), “* (*p < 0.05)”; in test [1] (Time 2 h, x1000 EC50) it was “** (**p < 0.01)”; in test [1] (Time 3 h, x1000 EC50), “*** (***p < 0.001)”; in test [1] (Time 4 h, x100 EC50), “* (*p < 0.05)”; in test [1] (Time 4 h, x1000 EC50), “* (*p < 0.05)”. In addition, the “Analgesic effect relative to vehicle, significance of tactile thresholds (von Frey)” value is given as “** (**p < 0.01)” in test [1] (Time 7 h, x100 EC50); “** (**p < 0.01)” in test [1] (Time 7 h, x1000 EC50); “** (**p < 0.01)” in test [1] (Time 8 h, x1000 EC50). The molecule further yielded an Effect duration in test [1] of 3 h. For the same molecule, the “Time of maximal analgesia” value in test [1] is 3 h. For the same molecule, the “Duration of significant analgesic effect” value in test [1] (higher concentrations than 100xEC50) was 3 h. Further, in test [1], the “Concentration at maximal analgesia” value worked out at 53 µM. Further, the “ED50 of maximal effect” value in test [1] is 6800 nM. In addition, in test [1], the “Maximal percentage of analgesia attained” value stood at 100%.
Regarding `COc1ccc(C(=O)NNC(=O)CSc2nnc(-c3ccc(C)cc3)n2C)cc1` [Compound 3], at TRPV1 channel, the “maximal effect (Ix/Icapsaicin)” value was 0.89. For the same molecule, at TRPV1 channel (read-out: EC50), the concentration giving a half-maximal response (EC50) was found to be 92 ± 10 nM. Moreover, the “Analgesic effect relative to vehicle, significance of tactile thresholds (von Frey)” value is recorded as “* (*p < 0.05)” in test [1] (Time 7 h, x1000 EC50); “* (*p < 0.05)” in test [1] (Time 8 h, x100 EC50); “* (*p < 0.05)” in test [1] (Time 8 h, x1000 EC50); “* (*p < 0.05)” in test [1] (Time 9 h, x100 EC50); “* (*p < 0.05)” in test [1] (Time 9 h, x1000 EC50). In test [1], this molecule registered an Effect duration of 2 h. Further, the “Time of maximal analgesia” value in test [1] turned out to be 7 h. For the same molecule, the “Time to first effect (first significant analgesic effect)” value was “Hour 7 h” in test [1] and 7 h in test [1] (listed as compound 3). The “Concentration at maximal analgesia” value in test [1] is 92 µM. For the same molecule, in test [1], the “ED50 of maximal effect” value was 139300 nM. Also, the “Maximal percentage of analgesia attained” value in test [1] is on record as 75%.
With `COc1cc(CNC(=O)CCCC/C=C/C(C)C)ccc1O` [Capsaicin, reference compound], the “maximal effect (Ix/Icapsaicin)” value at TRPV1 channel was found to be 1. Besides, in test [1], the Effect duration came to 2 h, the “Time of maximal analgesia” value is 4 h, the “Time to first effect (first significant analgesic effect)” value is “Hour 3 h” and the “Concentration at maximal analgesia” value came to 44 µM. In addition, in test [1], the “ED50 of maximal effect” value was 86900 nM and the “Maximal percentage of analgesia attained” value is 86%. Moreover, in test [1] (listed as capsaicin), the “Time to first effect (first significant analgesic effect)” value amounted to 3 h.
